{"source": "patent US9822082B2", "about": "“Diaminotriazine derivatives as herbicides” (BASF SE, priority 2014, dated 2017)", "experiment_in_all_cases": "pre-emergence greenhouse herbicidal test", "type_in_all_cases": "in vivo", "key": {"[1]": {"tested_on": "AMARE (Amaranthus retroflexus)", "conditions": "pre-emergence method, scale from 0 to 100", "text": "(§1) The seeds of the test plants were sown separately for each species. For the pre-emergence treatment, the active ingredients, which had been suspended or emulsified in water, were applied directly after sowing by means of finely distributing nozzles. The containers were irrigated gently to promote germination and growth and subsequently covered with transparent plastic hoods until the plants had rooted. This cover caused uniform germination of the test plants, unless this had been impaired by the active ingredients. Depending on the species, the plants were kept at 10-25° C. or 20-35° C., respectively. The test period extended over 2 to 4 weeks. During this time, the plants were tended, and their response to the individual treatments was evaluated. Evaluation was carried out using a scale from 0 to 100. 100 means no emergence of the plants, or complete destruction of at least the aerial moieties, and 0 means no damage, or normal course of growth. A moderate herbicidal activity is given at values of at least 60, a good herbicidal activity is given at values of at least 70, and a very good herbicidal activity is given at values of at least 85. The plants used in the greenhouse experiments were of the following species: [table]"}, "[2]": {"tested_on": "ABUTH (Abutilon theophrasti)", "conditions": "pre-emergence method, application rate 0.500 kg/ha, scale from 0 to 100", "text": "as §1"}, "SETFA (Setaria faberi)": {"tested_on": "SETFA (Setaria faberi)", "conditions": "pre-emergence method, scale from 0 to 100", "text": "as §1"}, "[3]": {"tested_on": "ECHCG (Echinocloa crus-galli)", "conditions": "pre-emergence method, application rate 0.250 kg/ha, scale from 0 to 100", "text": "as §1"}}, "data": [{"smiles": "COC1(c2nc(N)nc(Nc3c(F)c(F)cc(F)c3F)n2)CCC1", "note": "[Example 1, 6-(1-methoxycyclobutyl)-N4-(2,3,5,6-tetrafluorophenyl)-1,3,5-triazine-2,4-diamine]", "values": [{"measurement": "herbicidal activity against AMARE", "setting": "[1]; application rate 0.500 kg/ha", "result": "very good herbicidal activity (a very good herbicidal activity is given at values of at least 85)"}, {"measurement": "herbicidal activity against ABUTH", "setting": "[2]", "result": "very good herbicidal activity (a very good herbicidal activity is given at values of at least 85)"}, {"measurement": "herbicidal activity against SETFA", "setting": "SETFA (Setaria faberi); application rate 0.500 kg/ha", "result": "very good herbicidal activity (a very good herbicidal activity is given at values of at least 85)"}]}, {"smiles": "COC1(c2nc(N)nc(Nc3c(F)c(F)cc(F)c3F)n2)CCCC1", "note": "[Example 2, 6-(1-methoxycyclopentyl)-N2-(2,3,5,6-tetrafluorophenyl)-1,3,5-triazine-2,4-diamine]", "values": [{"measurement": "herbicidal activity against AMARE", "setting": "[1]; application rate 0.500 kg/ha", "result": "very good herbicidal activity (a very good herbicidal activity is given at values of at least 85)"}, {"measurement": "herbicidal activity against ABUTH", "setting": "[2]", "result": "very good herbicidal activity (a very good herbicidal activity is given at values of at least 85)"}, {"measurement": "herbicidal activity against SETFA", "setting": "SETFA (Setaria faberi); application rate 0.500 kg/ha", "result": "very good herbicidal activity (a very good herbicidal activity is given at values of at least 85)"}]}, {"smiles": "COC1(c2nc(N)nc(Nc3c(F)c(F)cc(F)c3F)n2)CCCCC1", "note": "[Example 3, 6-(1-methoxycyclohexyl)-N2-(2,3,5,6-tetrafluorophenyl)-1,3,5-triazine-2,4-diamine]", "values": [{"measurement": "herbicidal activity against AMARE", "setting": "[1]; application rate 0.250 kg/ha", "result": "very good herbicidal activity (a very good herbicidal activity is given at values of at least 85)"}, {"measurement": "herbicidal activity against ECHCG", "setting": "[3]", "result": "very good herbicidal activity (a very good herbicidal activity is given at values of at least 85)"}, {"measurement": "herbicidal activity against SETFA", "setting": "SETFA (Setaria faberi); application rate 0.250 kg/ha", "result": "very good herbicidal activity (a very good herbicidal activity is given at values of at least 85)"}]}]}
